Reference: patent US7589079B2, “Crystalline and amorphous forms of beta-L-2′-deoxythymidine” (Novartis AG, priority 2002, dated 2009)
Values after ≈ are worked out from the molar mass of the structure shown. Marks after values point to notes of the source that are not given here.

Tests used:
[1] = Approximate solubilities in various solvents at ambient temperature (crystallization screen); type: physicochemical
Description: A weighed sample of L-dT (usually 20-30 mg) was treated with aliquots of the test solvent. Solvents were either reagent or HPLC grade. The aliquots were usually 100 μL or 500 μL. Between additions the mixture was sonicated. When the solids dissolved, as judged by visual inspection, the solution was filtered, then left in an open vial under ambient conditions (fast evaporation). The procedure was repeated, and the resulting solution was left under ambient conditions in a vial with aluminum foil containing pinholes (slow evaporation). Samples were also generated by filtering a warm solution of L-dT into a cold antisolvent (cold precipitation).
Solubilities were estimated from these experiments based on the total solvent used to give a solution. Note that actual solubilities may be greater than those calculated because of the use of too-large solvent aliquots or a slow rate of dissolution.
Approximate solubilities of L-dT in various solvents at ambient temperature were determined during the crystalline screen, and are summarized in Table 1.

[2] = Moisture sorption/desorption (VTI SGA-100 Vapor Sorption Analyzer); type: physicochemical; details: for Moisture balance: loss from 95-5% RH: desorption from 95% to 5% RH; for Moisture balance: weight loss at 5% RH: equilibration at 5% RH; for Moisture balance: weight gain at 95% RH: sorption up to 95% RH; for Weight lost upon lowering the relative humidity (in words): lowering relative humidity from 95% RH to 5% RH
Description: Moisture sorption/desorption data were collected on a VTI SGA-100 Vapor Sorption Analyzer. Sorption and desorption data were collected over a range of 5% to 95% relative humidity (RH) at 10% RH intervals under a nitrogen purge. Samples were not dried prior to analysis. Equilibrium criteria used for analysis were less than 0.0100% weight change in 5 minutes, with a maximum equilibration time of 3 hours if the weight criterion was not met. Data were not corrected for the initial moisture content of the samples. NaCl and PVP were used as calibration standards.

[3] = solvent 1,1,1,3,3,3-hexafluoroisopropanol
[4] = solvent N,N-dimethylformamide (DMF)
[5] = solvent ethanol (EtOH), after 2 hours, all solid was dissolved

| Structure (SMILES) | Solubility [1, 3] [mg/mL] | Solubility ([1]; solvent 2,2,2-trifluoroethanol) [mg/mL] | Solubility ([1]; solvent MeOH:water (1:1)) [mg/mL] | Solubility [1, 4] [mg/mL] | Solubility ([1]; solvent THF:water (1:1)) [mg/mL] | Solubility ([1]; solvent acetone:water (4:1)) [mg/mL] | Solubility [1, 5] | Solubility ([1]; solvent methanol (MeOH)) [mg/mL] | Solubility ([1]; solvent water) [mg/mL] | Weight lost upon lowering the relative humidity (in words) [2] | also measured |
| --- | --- | --- | --- | --- | --- | --- | --- | --- | --- | --- | --- |
| Cc1cn([C@@H]2C[C@@H](O)[C@H](CO)O2)c(=O)[nH]c1=O [L-dT, beta-L-2′-deoxythymidine] | 22 (≈ 90.8 mM) | 8 (≈ 33 mM) | 58 (≈ 239 mM) | 72 (≈ 297 mM) | 127 (≈ 524 mM) | 51 (≈ 211 mM) | > 4 mg/mL | 11 (≈ 45.4 mM) | 32 (≈ 132 mM) | – | Solubility (in words) ([1]; in acetone, acetonitrile, ethyl acetate, diethyl ether, isopropanol, methylene chloride, and toluene): sparingly soluble |
| Cc1cn([C@@H]2C[C@@H](O)[C@H](CO)O2)c(=O)[nH]c1=O [Lot No. 1, beta-L-2′-deoxythymidine] | – | – | – | – | – | – | – | – | – | – | Moisture balance: loss from 95-5% RH ([2]; listed as 1): 1.1% loss from 95-5% RH; Moisture balance: weight loss at 5% RH ([2]; listed as 1): <0.1% weight loss at 5% RH; Moisture balance: weight gain at 95% RH ([2]; listed as 1): 1.1% weight gain at 95% RH |
| Cc1cn([C@@H]2C[C@@H](O)[C@H](CO)O2)c(=O)[nH]c1=O [Lot No. 2, beta-L-2′-deoxythymidine] | – | – | – | – | – | – | – | – | – | – | Moisture balance: loss from 95-5% RH ([2]; listed as 2): 2.7% loss from 95-5% RH; Moisture balance: weight loss at 5% RH ([2]; listed as 2): −0.4% weight loss at 5% RH; Moisture balance: weight gain at 95% RH ([2]; listed as 2): 2.8% weight gain at 95% RH |
| Cc1cn([C@@H]2C[C@@H](O)[C@H](CO)O2)c(=O)[nH]c1=O [amorphous L-dT, beta-L-2′-deoxythymidine] | – | – | – | – | – | – | – | – | – | loses almost all of this weight | Moisture balance: weight loss at 5% RH [2]: ~0.4%; Moisture sorption: weight gain up to about 55% RH ([2]; sorption up to about 55% RH): ~2.3% |
| Cc1cn([C@@H]2C[C@@H](O)[C@H](CO)O2)c(=O)[nH]c1=O [crystalline L-dT, beta-L-2′-deoxythymidine] | 22 (≈ 90.8 mM) | 8 (≈ 33 mM) | 58 (≈ 239 mM) | 72 (≈ 297 mM) | 127 (≈ 524 mM) | 51 (≈ 211 mM) | >3.6* mg/mL | 11 (≈ 45.4 mM) | 32 (≈ 132 mM) | All of this weight is lost | Moisture balance: weight gain at 95% RH [2]: 1.1%; Solubility ([1]; solvent acetone): <4 mg/mL; Solubility ([1]; solvent acetonitrile (ACN)): <4 mg/mL; Solubility ([1]; solvent dichloromethane): <3 mg/mL; Solubility ([1]; solvent ethyl acetate (EtOAc)): <4 mg/mL; Solubility ([1]; solvent ethyl ether): <3 mg/mL; Solubility ([1]; solvent hexane): <4 mg/mL; Solubility ([1]; solvent isopropanol IPA): <3 mg/mL; Solubility ([1]; solvent tetrahydrofuran (THF)): 4 mg/mL (≈ 16.5 mM); Solubility ([1]; solvent toluene): <4 mg/mL |
